In patent US20220264878A1, “HERBICIDAL COMPOSITION CONTAINING R-TYPE PYRIDYLOXY CARBOXYLIC ACID DERIVATIVE AND USE THEREOF” (Qingdao Kingagroot Chemical Compound Co., Ltd., priority 2019, published 2022):

Legend:
Type in all cases: in vivo
Echinochloa caudate = assay: Soil sealing treatment, pot culture, fresh weight inhibition (Tables 99, 100)
Experimental: (§1) A method for investigating absolute number was employed, wherein whole seedlings of survival weeds were cut off with a blade along the soil surface, and the fresh weight of the weeds was weighed with an analytical balance. For dead weeds, the fresh weight thereof was zero.
(§2) Theoretical fresh weight inhibition rate of a combination of two active ingredients in each group was calculated by the Gowing method (E0=X+Y−X*Y/100), and then compared with an actually measured inhibition rate (E), thereby effect of the combination (hereafter referred to as combined effect) on weeds was evaluated: the value of E-E0, which was greater than 10%, corresponded to a synergistic effect, the value of E-E0, which was less than −10%, corresponded to an antagonistic effect, and the value of E-E0, which was from −10% to 10%, corresponded to an additional effect. […] Wherein, in the formula, X represented the fresh weight inhibition rate of the active ingredient A in a dosage of P, and Y represented the fresh weight inhibition rate of the active ingredient B in a dosage of Q.
(§3) Echinochloa crusgalli var zelayensis were collected in Huai'an of Jiangsu Province; Echinochloa caudate were collected in Pingluo of Ningxia Province; Echinochloa oryzoides were collected in Qiqiha'er of Heilongjiang Province.
(§4) The culture was carried out in a controllable sunlight greenhouse at 20 to 30° C., in natural light, and relative humidity of 57% to 72%. […] The test soil was placed quantitatively to ¾ of the pots and then watered from the bottom of the pots to completely wet the soil to saturation. The pretreated test weed seeds were uniformly sowed on the surface, then covered with 0.5-2 cm soil according to the seed size, and ready-for use 24 hours after sowing.
(§5) The technical materials were all dissolved in acetone, and diluted with an aqueous solution containing 0.1% emulsifier T-80. The dilution is performed as required.
(§6) A ratio of A to the active ingredient B and amounts thereof in each group depends on the characteristics and toxicity of the two agents, as well as the main application purpose of a corresponding formulation. Based on the pre-tests in this study, the dosage of A and the active ingredient B applied alone and in combination were shown in the tables. Water containing the solvent and emulsifier same with the above groups but free of the agents was used as a blank control.
(§7) 3 pots with 30 weed seeds per pot were treated in one treatment with 4 replications per treatment.
(§8) The pots which were sowed and mulched were evenly placed on a platform with an area of 0.5 m^2, and a solution of agents was sprayed on soil surface thereof by the 3WP-2000-type walking spray tower at a dosage of […] and at a spray pressure of 0.3 MPa. After all the solution was sprayed, the valve was closed. After 30 seconds, the door of the spray tower was opened, and the nutritional bowl was taken out. Then the valve was opened, and the spray tube was cleaned by spraying 50 ml of water.
(§9) This section was same as the section 4) in the post-emergence treatment by performing foliage spray, and was not repeated herein.

[1] = test system: Echinochloa crusgalli var. zelayensis; assay: Soil sealing treatment, pot culture, fresh weight inhibition (Tables 49, 50)
Experimental: as §1, §2, §3, §4, §5, §6, §7, §8, §9

Veronica didyma = assay: Post-emergence foliage spray, pot culture, fresh weight inhibition (Tables 151-206; 20 days); settings: 20 days after treatment
In short: (§10)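 Field-collected weeds grown in pots in a greenhouse (20-30° C., natural light, 57-72% RH), 15 per pot, 3 pots × 4 replicates. Single foliar spray at 4-5 leaves (grasses) or 5-6 leaves (broadleaf) with acetone/0.1% Tween-80 dilutions at 450 kg/ha, 0.3 MPa. Above-ground fresh weight inhibition versus solvent blank at 20 days.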

Conyza Canadensis [2] = assay: as above; settings: 20 days after treatment
In short: as §10

Conyza Canadensis [3] = assay: Post-emergence foliage spray on Conyza Canadensis with a height of 10 cm, fresh weight inhibition (Tables 207-216; 24 days); settings: 24 days after treatment
Experimental: The above weeds were cultivated by a pot culture method. […] Full and uniform weed seeds were selected, soaked in warm water at 25° C. for 6 hours, and germinated in a 28° C. biochemical incubator (darkness). The weed seeds that had just germinatedwere evenly placed on the surface of the soil and then covered with 0.5-1 cm soil according to the sizes of seeds.
The technical materials were all dissolved in acetone, and diluted with an aqueous solution containing 0.1% emulsifier Tween-80. The dilution is performed as required.
A ratio of the active ingredient A to the active ingredient B and amounts thereof in each group depends on the characteristics and toxicity of the two agents, as well as the main application purpose of a corresponding formulation. Based on the pre-tests in this study, the dosage of the active ingredient A and B applied alone and in combination were shown in the tables. Water containing the solvent and emulsifier same with the above groups but free of the agents was used as a blank control.
In the stage of weeds with 6˜8 leaves, the weeds were thinned out to maintain 3 weeds per pot and 30 weeds for each treatment, then continued to be cultured to Conyza Canadensis with a height of 10 cm, and treated.
The well-cultured weeds were evenly placed on a platform with an area of 0.5 m^2, and a solution of agents was sprayed on the stems and leaves thereof by the 3WP-2000-type walking spray tower at a dosage of 450 kg/ha and at a spray pressure of 0.3 MPa. After all the solution was sprayed, the valve was closed. After 30 seconds, the door of the spray tower was opened, and the nutritional bowl was taken out. Then the valve was opened, and the spray tube was cleaned by spraying 50 ml of water.
A pot-culture method was employed. For the cultivation of weeds, please refer to the Section 1.1), and “Pesticide guidelines for laboratory bioactivity tests—herbicides”. As to a method for applying agents, please refer to the section 2.3.2), that is, a foliage treatment was employed. After the treatment, the weeds were routinely cultured in a greenhouse.
as §1
Wherein, in the formula, X represented the fresh weight inhibition rate of the active ingredient A in a dosage of P, and Y represented the fresh weight inhibition rate of the active ingredient B in a dosage of Q.

Compound | Control effect (%) of A applied alone in corresponding dose (Echinochloa caudate; Table 99, 75 g a.i./ha) [%] | Control effect (%) of A applied alone in corresponding dose (Echinochloa caudate; Table 99, 150 g a.i./ha) [%] | Control effect (%) of A applied alone in corresponding dose (Echinochloa caudate; Table 100, 75 g a.i./ha) [%] | Control effect (%) of A applied alone in corresponding dose (Echinochloa caudate; Table 100, 150 g a.i./ha) [%] | Control effect (%) of A applied alone in corresponding dose ([1]; A2 75 g a.i./ha) [%] | Control effect (%) of A applied alone in corresponding dose ([1]; A2 150 g a.i./ha) [%] | Control effect (%) of A applied alone in corresponding dose (Veronica didyma; A alone 75 g a.i./ha) [%] | Control effect (%) of A applied alone in corresponding dose (Veronica didyma; A alone 150 g a.i./ha) [%] | Control effect (%) of A applied alone in corresponding dose (Conyza Canadensis [2]; A alone 75 g a.i./ha) [%] | Control effect (%) of A applied alone in corresponding dose (Conyza Canadensis [2]; A alone 150 g a.i./ha) [%] | Control effect (%) of A applied alone in corresponding dose (Conyza Canadensis [3]; A alone 60 g a.i./ha) [%] | Control effect (%) of A applied alone in corresponding dose (Conyza Canadensis [3]; A alone 120 g a.i./ha) [%]
C[C@@H](Oc1nc(F)c(Cl)c(N)c1Cl)C(=O)O [Compound A1] | 23.4 | 47.2 | 23.4 | 47.2 |  |  |  |  |  |  |  | 
C[C@@H](Oc1nc(F)c(Cl)c(N)c1Cl)C(=O)OCC1CCCO1 (stereo partly drawn) [Compound A2] |  |  |  |  | 21.4 | 45.2 | 19.7 | 36.6 | 38.1 | 54.4 | 22.6 | 47.9
